Measurements reported in US20250346600A1, “TRICYCLIC DERIVATIVES AND RELATED USES” (MOMA Therapeutics, Inc., priority 2023, published 2025).
Read-outs that look alike come from different tables or passages of the source.

What was measured:
[1] = molecular target: T1, Full length WRN protein (aa 2-1432) (Homo sapiens (Human), UniProt Q14191); experiment: WRN ATPase ADP-Glo biochemical assay, Assay Format A (10 μM ATP); conditions: 0.25 nM WRN, 100 nM C6.18 ssDNA, 30 min preincubation, read-out: ATPase ADPGlo AC50 (uM)- Assay Format A
Summary of the method: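 Sf9-expressed FLAG-AVI-TEV-tagged WRN (0.5 nM) preincubated 30 min with compound (11-point 3-fold dilution). Reaction started with 200 nM C6.18 39-mer ssDNA and 20 μM ATP (addition concentrations), run 30 min at room temperature. ADP measured by ADP-Glo luminescence; IC50 from four-parameter fit, geometric mean of ≥2 runs.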

HT29 cells = experiment: HT29 (MSS) 7 day viability, CellTiter Glo; type: cell-based; conditions: 7 days, read-out: HT29 (MSS) Viability 7 Day CTGAbs AC50
Summary of the method: (§1)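 HCT116 (50 cells/well) or HT29 (500 cells/well) exposed 7 days at 37° C, 5% CO2, to 10-point 3-fold compound dilutions. Viability measured by CellTiter Glo luminescence, background from cell-free wells; IC50 from four-parameter logistic fit, geometric mean of at least 2 replicates.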

[2] = molecular target: T1, Full length WRN protein (aa 2-1432); experiment: WRN ATPase ADP-Glo biochemical assay, Assay Format B (100 μM ATP); conditions: 0.25 nM WRN, 100 nM C6.18 ssDNA, 60 min preincubation, read-out: ATPase ADPGlo AC50 (uM)- Assay Format B
HCT116 cells = experiment: HCT116 (MSI) 7 day viability, CellTiter Glo; type: cell-based; conditions: 7 days, read-out: HCT116 (MSI) Viability 7 Day Abs AC50
Summary of the method: as §1

T1 sequence (Q14191 2-1432): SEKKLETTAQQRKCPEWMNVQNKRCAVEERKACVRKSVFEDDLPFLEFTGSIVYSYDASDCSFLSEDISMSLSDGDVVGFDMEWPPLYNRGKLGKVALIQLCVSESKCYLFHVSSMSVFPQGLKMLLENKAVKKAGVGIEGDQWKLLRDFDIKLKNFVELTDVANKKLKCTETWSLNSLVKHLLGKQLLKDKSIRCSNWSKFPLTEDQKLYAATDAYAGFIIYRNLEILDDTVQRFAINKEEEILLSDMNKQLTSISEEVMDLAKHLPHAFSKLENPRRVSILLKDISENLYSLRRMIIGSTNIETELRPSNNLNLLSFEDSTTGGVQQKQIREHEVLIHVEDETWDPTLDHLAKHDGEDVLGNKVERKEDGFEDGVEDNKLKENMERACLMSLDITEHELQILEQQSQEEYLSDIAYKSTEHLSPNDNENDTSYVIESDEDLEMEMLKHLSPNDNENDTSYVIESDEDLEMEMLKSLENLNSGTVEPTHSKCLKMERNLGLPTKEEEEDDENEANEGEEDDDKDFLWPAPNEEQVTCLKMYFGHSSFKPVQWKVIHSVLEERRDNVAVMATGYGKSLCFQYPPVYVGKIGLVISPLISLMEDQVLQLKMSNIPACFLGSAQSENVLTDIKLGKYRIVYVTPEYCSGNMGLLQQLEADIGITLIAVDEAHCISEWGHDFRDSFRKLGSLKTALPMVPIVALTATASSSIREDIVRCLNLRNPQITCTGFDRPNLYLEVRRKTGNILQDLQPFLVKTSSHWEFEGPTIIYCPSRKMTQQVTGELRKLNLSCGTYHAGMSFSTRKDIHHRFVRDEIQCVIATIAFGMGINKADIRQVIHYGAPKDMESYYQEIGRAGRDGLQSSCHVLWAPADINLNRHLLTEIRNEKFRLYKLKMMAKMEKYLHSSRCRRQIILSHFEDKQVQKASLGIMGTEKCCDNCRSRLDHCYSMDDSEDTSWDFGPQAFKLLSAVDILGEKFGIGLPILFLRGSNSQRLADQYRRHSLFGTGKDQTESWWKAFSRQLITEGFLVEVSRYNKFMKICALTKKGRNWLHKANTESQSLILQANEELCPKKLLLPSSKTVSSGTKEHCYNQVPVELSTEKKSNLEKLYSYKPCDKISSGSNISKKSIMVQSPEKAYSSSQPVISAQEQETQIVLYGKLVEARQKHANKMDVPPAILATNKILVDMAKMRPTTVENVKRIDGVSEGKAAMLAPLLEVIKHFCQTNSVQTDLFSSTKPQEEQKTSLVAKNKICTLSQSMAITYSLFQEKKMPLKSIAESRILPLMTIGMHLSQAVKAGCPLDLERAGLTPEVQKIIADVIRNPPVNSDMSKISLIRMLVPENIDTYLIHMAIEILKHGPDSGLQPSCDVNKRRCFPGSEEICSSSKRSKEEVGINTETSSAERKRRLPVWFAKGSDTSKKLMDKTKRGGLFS

| Compound | AC50 [1] | AC50 (HT29 cells; Homo sapiens, HT-29, 168 h) | AC50 [2] | AC50 (HCT116 cells; Homo sapiens, HCT-116, 168 h) | AC50 (HT29 cells) | AC50 (HCT116 cells) |
| --- | --- | --- | --- | --- | --- | --- |
| C=CC(=O)N1CCc2nn(-c3ccc(C4CCC4)cc3O)c3c2C(C1)N(C(=O)c1cnc(C(F)(F)F)c(F)c1N)CC3 (stereo not drawn) [Compound 134, 1-(5-(4-amino-5-fluoro-6-(trifluoromethyl)nicotinoyl)-2-(4-cyclobutyl-2-hydroxyphenyl)-2,3,4,5,5a,6,8,9-octahydro-7H-1,2,5,7-tetraazabenzo[cd]azulen-7-yl)prop-2-en-1-one] | < 0.0015 µM | > 3000 nM | 0.0015 to 0.005 µM | 1 to 100 nM | – | – |
| C=CC(=O)N1CC(C)c2nn(-c3ccc(C4CCC4)cc3O)c3c2C(C1)N(C(=O)c1cnc(C(F)(F)F)cc1N)CC3 (stereo not drawn) [Compound 135, 1-(5-(4-amino-6-(trifluoromethyl)nicotinoyl)-2-(4-cyclobutyl-2-hydroxyphenyl)-9-methyl-2,3,4,5,5a,6,8,9-octahydro-7H-1,2,5,7-tetraazabenzo[cd]azulen-7-yl)prop-2-en-1-one] | < 0.0015 µM | – | 0.005 to 0.015 µM | – | > 3000 nM | 1 to 100 nM |
| C=CC(=O)N1CCc2nn(-c3ccc(C(F)(F)F)nc3N)c3c2C(C1)N(C(=O)c1ccc(Br)c2[nH]c(C(F)F)nc12)CC3 (stereo not drawn) [Compound 136, 1-(2-(2-amino-6-(trifluoromethyl)pyridin-3-yl)-5-(7-bromo-2-(difluoromethyl)-1H-benzo[d]imidazole-4-carbonyl)-2,3,4,5,5a,6,8,9-octahydro-7H-1,2,5,7-tetraazabenzo[cd]azulen-7-yl)prop-2-en-1-one] | 0.0015 to 0.005 µM | > 3000 nM | 0.015 to 0.055 µM | 100 to 250 nM | – | – |
| C=CC(=O)N1CCc2nn(-c3ccc(C4CCC4)cc3O)c3c2C(C1)N(C(=O)c1cnc(C(F)(F)F)cc1N)CC3 (stereo not drawn) [Compound 138, 1-(5-(4-amino-6-(trifluoromethyl)nicotinoyl)-2-(4-cyclobutyl-2-hydroxyphenyl)-2,3,4,5,5a,6,8,9-octahydro-7H-1,2,5,7-tetraazabenzo[cd]azulen-7-yl)prop-2-en-1-one] | < 0.0015 µM | > 3000 nM | 0.005 to 0.015 µM | 1 to 100 nM | – | – |
| C=CC(=O)N1CCc2nn(-c3ccc(C4CCC4)c(F)c3O)c3c2C(C1)N(C(=O)c1cnc(C(F)(F)F)cc1N)CC3 (stereo not drawn) [Compound 139, 1-(5-(4-amino-6-(trifluoromethyl)nicotinoyl)-2-(4-cyclobutyl-3-fluoro-2-hydroxyphenyl)-2,3,4,5,5a,6,8,9-octahydro-7H-1,2,5,7-tetraazabenzo[cd]azulen-7-yl)prop-2-en-1-one] | < 0.0015 µM | > 3000 nM | 0.005 to 0.015 µM | 1 to 100 nM | – | – |
| C=CC(=O)N1CCc2nn(-c3ccc(C4CCC4)c(F)c3O)c3c2C(C1)N(C(=O)c1cnc(C(F)(F)F)c(O)c1)CC3 (stereo not drawn) [Compound 141, 1-(2-(4-cyclobutyl-3-fluoro-2-hydroxyphenyl)-5-(5-hydroxy-6-(trifluoromethyl)nicotinoyl)-2,3,4,5,5a,6,8,9-octahydro-7H-1,2,5,7-tetraazabenzo[cd]azulen-7-yl)prop-2-en-1-one] | < 0.0015 µM | > 3000 nM | 0.005 to 0.015 µM | 1 to 100 nM | – | – |
| C=CC(=O)N1CCc2nn(-c3ccc(C4CCC4)cc3O)c3c2C(C1)N(C(=O)c1ncc(C(F)(F)F)cc1N)CC3 (stereo not drawn) [Compound 142, 1-(5-(3-amino-5-(trifluoromethyl)picolinoyl)-2-(4-cyclobutyl-2-hydroxyphenyl)-2,3,4,5,5a,6,8,9-octahydro-7H-1,2,5,7-tetraazabenzo[cd]azulen-7-yl)prop-2-en-1-one] | < 0.0015 µM | > 3000 nM | 0.015 to 0.055 µM | 1 to 100 nM | – | – |
| C=CC(=O)N1CCc2nn(-c3ccc(C4CC4)cc3O)c3c2C(C1)N(C(=O)c1ccc(Br)c2[nH]c(C(F)F)nc12)CC3 (stereo not drawn) [Compound 143, 1-(5-(7-bromo-2-(difluoromethyl)-1H-benzo[d]imidazole-4-carbonyl)-2-(4-cyclopropyl-2-hydroxyphenyl)-2,3,4,5,5a,6,8,9-octahydro-7H-1,2,5,7-tetraazabenzo[cd]azulen-7-yl)prop-2-en-1-one] | < 0.0015 µM | > 3000 nM | 0.005 to 0.015 µM | 1 to 100 nM | – | – |
| C=CC(=O)N1CCc2nn(-c3ccc(C4CCC4)cc3O)c3c2C(C1)N(C(=O)c1cnc(Cl)cc1N)CC3 (stereo not drawn) [Compound 144, 1-(5-(4-amino-6-chloronicotinoyl)-2-(4-cyclobutyl-2-hydroxyphenyl)-2,3,4,5,5a,6,8,9-octahydro-7H-1,2,5,7-tetraazabenzo[cd]azulen-7-yl)prop-2-en-1-one] | < 0.0015 µM | > 3000 nM | 0.0015 to 0.005 µM | 1 to 100 nM | – | – |
| C=CC(=O)N1CCc2nn(-c3ccc(C4CCC4)cc3O)c3c2C(C1)N(C(=O)c1cnc2c(C)nn(C)c2c1)CC3 (stereo not drawn) [Compound 145, 1-(2-(4-cyclobutyl-2-hydroxyphenyl)-5-(1,3-dimethyl-1H-pyrazolo[4,3-b]pyridine-6-carbonyl)-2,3,4,5,5a,6,8,9-octahydro-7H-1,2,5,7-tetraazabenzo[cd]azulen-7-yl)prop-2-en-1-one] | < 0.0015 µM | > 3000 nM | 0.005 to 0.015 µM | 1 to 100 nM | – | – |
| C=CC(=O)N1CCc2nn(-c3ccc(C4CCC4)cc3O)c3c2C(C1)N(C(=O)c1ccc(C(F)F)nc1N)CC3 (stereo not drawn) [Compound 146, 1-(5-(2-amino-6-(difluoromethyl)nicotinoyl)-2-(4-cyclobutyl-2-hydroxyphenyl)-2,3,4,5,5a,6,8,9-octahydro-7H-1,2,5,7-tetraazabenzo[cd]azulen-7-yl)prop-2-en-1-one] | < 0.0015 µM | > 3000 nM | 0.005 to 0.015 µM | 1 to 100 nM | – | – |
| C=CC(=O)N1CCc2nn(-c3ccc(C4CCC4)cc3O)c3c2C(C1)N(C(=O)c1ccc(Br)c2nc(CCO)[nH]c12)CC3 (stereo not drawn) [Compound 148, 1-(5-(4-bromo-2-(2-hydroxyethyl)-1H-benzo[d]imidazole-7-carbonyl)-2-(4-cyclobutyl-2-hydroxyphenyl)-2,3,4,5,5a,6,8,9-octahydro-7H-1,2,5,7-tetraazabenzo[cd]azulen-7-yl)prop-2-en-1-one] | < 0.0015 µM | > 3000 nM | 0.005 to 0.015 µM | 1 to 100 nM | – | – |
| C=CC(=O)N1CCc2nn(-c3ccc(C4CCC4)cc3O)c3c2C(C1)N(C(=O)c1cnc(C(F)(F)F)cc1O)CC3 (stereo not drawn) [Compound 149, 1-(2-(4-cyclobutyl-2-hydroxyphenyl)-5-(4-hydroxy-6-(trifluoromethyl)nicotinoyl)-2,3,4,5,5a,6,8,9-octahydro-7H-1,2,5,7-tetraazabenzo[cd]azulen-7-yl)prop-2-en-1-one] | < 0.0015 µM | > 3000 nM | 0.005 to 0.015 µM | 250 to 500 nM | – | – |
| C=CC(=O)N1CCc2nn(-c3ccc(C(C)C)cc3)c3c2C(C1)N(C(=O)c1cnc(C(F)(F)F)cc1N)CC3 (stereo not drawn) [Compound 150, 1-(5-(4-amino-6-(trifluoromethyl)nicotinoyl)-2-(4-isopropylphenyl)-2,3,4,5,5a,6,8,9-octahydro-7H-1,2,5,7-tetraazabenzo[cd]azulen-7-yl)prop-2-en-1-one] | < 0.0015 µM | > 3000 nM | 0.005 to 0.015 µM | 1 to 100 nM | – | – |
| C=CC(=O)N1CCc2nn(-c3ccc(C45CC(C4)C5)cc3)c3c2C(C1)N(C(=O)c1ccc(C(F)(F)F)nc1N)CC3 (stereo not drawn) [Compound 152, 1-(5-(2-amino-6-(trifluoromethyl)nicotinoyl)-2-(4-(bicyclo[1.1.1]pentan-1-yl)phenyl)-2,3,4,5,5a,6,8,9-octahydro-7H-1,2,5,7-tetraazabenzo[cd]azulen-7-yl)prop-2-en-1-one] | < 0.0015 µM | > 3000 nM | 0.015 to 0.055 µM | 1 to 100 nM | – | – |
| C=CC(=O)N1CCc2nn(-c3ccc(C4CCC4)cc3O)c3c2C(C1)N(C(=O)c1cc(O)c2scnc2c1)CC3 (stereo not drawn) [Compound 153, 1-(2-(4-cyclobutyl-2-hydroxyphenyl)-5-(7-hydroxybenzo[d]thiazole-5-carbonyl)-2,3,4,5,5a,6,8,9-octahydro-7H-1,2,5,7-tetraazabenzo[cd]azulen-7-yl)prop-2-en-1-one] | < 0.0015 µM | > 3000 nM | 0.0015 to 0.005 µM | 1 to 100 nM | – | – |
| C=CC(=O)N1CCc2nn(-c3ccc(C4CCC4)cc3O)c3c2C(C1)N(C(=O)c1ccc(C(C)(F)F)nc1N)CC3 (stereo not drawn) [Compound 155, 1-(5-(2-amino-6-(1,1-difluoroethyl)nicotinoyl)-2-(4-cyclobutyl-2-hydroxyphenyl)-2,3,4,5,5a,6,8,9-octahydro-7H-1,2,5,7-tetraazabenzo[cd]azulen-7-yl)prop-2-en-1-one] | < 0.0015 µM | > 3000 nM | 0.005 to 0.015 µM | 1 to 100 nM | – | – |
| C=CC(=O)N1CC(OC)c2nn(-c3ccc(C4CCC4)cc3)c3c2C(C1)N(C(=O)c1cnc(C(F)(F)F)c(O)c1)CC3 (stereo not drawn) [Compound 156, 1-(2-(4-cyclobutylphenyl)-5-(5-hydroxy-6-(trifluoromethyl)nicotinoyl)-9-methoxy-2,3,4,5,5a,6,8,9-octahydro-7H-1,2,5,7-tetraazabenzo[cd]azulen-7-yl)prop-2-en-1-one] | 0.0015 to 0.005 µM | > 3000 nM | 0.005 to 0.015 µM | 1 to 100 nM | – | – |
